Laboratory results published in US10836759B2, “Thiazole derivatives useful as mutant IDH1 inhibitors for treating cancer” (THE UNITED STATES OF AMERICA, AS REPRESENTED BY THE …, priority 2016, dated 2020).

Columns and labels:
IDH1 R132C = IDH1 R132C (Homo sapiens, UniProt O75874, R132C); experiment: Enzymatic inhibition assay, mutant IDH1 R132C (NADPH depletion coupled to diaphorase/resazurin); assay type: biochemical; details: IDH1 R132C enzyme, IC50 class
Protocol: (§1) Assays were conducted in a 1536-well black solid-bottom plate with a final assay volume of 9 μL.
For IDH1 R132C, 3 μL of enzyme (0.00032 mg/mL IDH1 R132H, 10% glycerol, 50 mM potassium phosphate pH 6.5, 5 mM MgCl2, 0.03% BSA) were added to the plate, followed by the addition of 23 nL of test compound in DMSO. The plate was lidded and incubated at room temperature for 30 minutes at which time 3 μL of substrate were added (0.012 mM NADPH, 0.6 mM α-KG, 10% glycerol, 50 mM potassium phosphate pH 6.5, 5 mM MgCl2, 0.03% BSA). […]

IDH1 R132H = IDH1 R132H (Homo sapiens, UniProt O75874, R132H); experiment: Enzymatic inhibition assay, mutant IDH1 R132H (NADPH depletion coupled to diaphorase/resazurin); assay type: biochemical; details: IDH1 R132H enzyme, IC50 class
Protocol: as §1
Specifically, for IDH1 R132H, 3 μL of enzyme (4 mM β-ME, 0.0005 mg/mL IDH1 R132H, 150 mM NaCl, 20 mM Tris pH 7.5, 10 mM MgCl2, 0.05% BSA) were added to the plate, followed by the addition of 23 nL of test compound in DMSO. The plate was lidded and incubated at room temperature for 30 minutes at which time 3 μL of substrate were added (0.016 mM NADPH, 2 mM α-KG, 150 mM NaCl, 20 mM Tris pH 7.5, 10 mM MgCl2, 0.05% BSA). This reaction was incubated at room-temperature for 60 minutes at which time the detection mix was added (0.06 mg/mL diaphorase, 0.036 mM resazurin, 150 mM NaCl, 20 mM Tris pH 7.5, 10 mM MgCl2, 0.05% BSA). […]

Chain of IDH1 R132H (O75874 whole entry R132H): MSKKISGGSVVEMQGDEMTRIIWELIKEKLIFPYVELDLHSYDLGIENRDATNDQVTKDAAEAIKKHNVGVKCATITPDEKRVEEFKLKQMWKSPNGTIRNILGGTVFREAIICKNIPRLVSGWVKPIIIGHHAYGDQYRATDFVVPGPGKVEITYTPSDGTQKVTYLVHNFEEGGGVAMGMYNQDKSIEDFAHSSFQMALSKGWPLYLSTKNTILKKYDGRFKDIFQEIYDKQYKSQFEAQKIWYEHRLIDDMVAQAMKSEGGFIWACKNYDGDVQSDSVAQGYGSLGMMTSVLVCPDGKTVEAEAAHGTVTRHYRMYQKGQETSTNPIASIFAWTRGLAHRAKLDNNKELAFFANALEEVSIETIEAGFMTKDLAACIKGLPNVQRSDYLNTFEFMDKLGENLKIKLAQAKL
Chain of IDH1 R132C (O75874 whole entry R132C): as the sequence (O75874 whole entry R132H) above, with H132C counted along it

Row | IC50 (IDH1 R132C) [nM] | IC50 (IDH1 R132H) [nM] | Structure (SMILES)
1 | 300 to 1000 | < 300 | CCOc1ccc(Cl)cc1-n1c(C=C(C)C)c(C(=O)N2CCNC[C@@H]2C)cc(-c2nc(-c3ccc(C(F)(F)F)cc3)cs2)c1=O [Compound 128]
2 | < 300 | < 300 | CCOc1ccc(Cl)cc1-n1c(C=C(C)C)c(C(=O)N2CCNC[C@H]2C)cc(-c2nc(-c3ccc(C(F)(F)F)cc3)cs2)c1=O [Compound 129]
3 | < 300 | < 300 | CCOc1ccc(Cl)c(-n2c(C=C(C)C)c(C(=O)N3C[C@H]4CC[C@@H](C3)N4)cc(-c3nc(-c4ccc(C(F)F)cc4)cs3)c2=O)c1 [Compound 130]
4 | < 300 | < 300 | CCc1cccc(CC)c1-n1c(C=C(C)C)c(C(=O)N2CCNC[C@H]2C)cc(-c2nc(-c3ccc(C(F)F)cc3)cs2)c1=O [Compound 131]
5 | < 300 | < 300 | CCc1cccc(CC)c1-n1c(C=C(C)C)c(C(=O)N2CCNC[C@@H]2C)cc(-c2nc(-c3ccc(C(F)F)cc3)cs2)c1=O [Compound 132]
6 | < 300 | < 300 | CCc1ccc(Cl)cc1-n1c(C=C(C)C)c(C(=O)N2CC3CCC(C2)N3)cc(-c2nc(-c3ccc(Cl)cc3)cs2)c1=O [Compound 133]
7 | < 300 | < 300 | CCc1ccc(N(C)C)cc1-n1c(C=C(C)C)c(C(=O)N2CC3CCC(C2)N3)cc(-c2nc(-c3ccc(Cl)cc3)cs2)c1=O [Compound 134]
8 | < 300 | < 300 | CCOc1ccc(C#N)cc1-n1c(C=C(C)C)c(C(=O)N2CC3CCC(C2)N3)cc(-c2nc(-c3ccc(Cl)cc3)cs2)c1=O [Compound 135]
9 | < 300 | < 300 | CCOc1ccc(C#N)cc1-n1c(C=C(C)C)c(C(=O)N2CCNCC2)cc(-c2nc(-c3ccc(Cl)cc3)cs2)c1=O [Compound 136]
10 | < 300 | < 300 | CCOc1ccc(Cl)c(-n2c(C=C(C)C)c(C(=O)N3CCNCC3)cc(-c3nc(-c4ccc(OC)nc4)cs3)c2=O)c1 [Compound 137]
11 | < 300 | < 300 | CCOc1ccc(Cl)c(-n2c(C=C(C)C)c(C(=O)N3CC4CCC(C3)N4)cc(-c3nc(-c4ccc(OC)nc4)cs3)c2=O)c1 [Compound 138]
12 | < 300 | < 300 | CCOc1ccc(N(CC)CC)cc1-n1c(C=C(C)C)c(C(=O)N2CCNCC2)cc(-c2nc(-c3ccc(Cl)cc3)cs2)c1=O [Compound 145]
13 | 300 to 1000 | < 300 | CCOc1ccc(N(CC)CC)cc1-n1c(C=C(C)C)c(C(=O)N2C[C@H]3CC[C@@H](C2)N3)cc(-c2nc(-c3ccc(Cl)cc3)cs2)c1=O [Compound 146]
14 | < 300 | < 300 | CC(C)=Cc1c(C(=O)N2CCNCC2)cc(-c2nc(-c3ccc(Cl)cc3)cs2)c(=O)n1-c1cc(N(C)C)ccc1Cl [Compound 147]
15 | < 300 | < 300 | CNc1ccc(Cl)c(-n2c(C=C(C)C)c(C(=O)N3CCNCC3)cc(-c3nc(-c4ccc(Cl)cc4)cs3)c2=O)c1 [Compound 148]
16 | < 300 | < 300 | CNc1ccc(Cl)c(-n2c(C=C(C)C)c(C(=O)N3C[C@H]4CC[C@@H](C3)N4)cc(-c3nc(-c4ccc(Cl)cc4)cs3)c2=O)c1 [Compound 149]
17 | < 300 | 300 to 1000 | CC(C)=Cc1c(C(=O)N2C[C@H]3CC[C@@H](C2)N3)cc(-c2nc(-c3ccc(Cl)cc3)cs2)c(=O)n1-c1cc(N(C)C)ccc1Cl [Compound 150]
